Data from PMC2603313, “Direct Inhibition of GSK3β by the Phosphorylated Cytoplasmic Domain of LRP6 in Wnt/β-Catenin Signaling” (PLoS ONE, 2008).
Ends that are not written are not given here.

Columns and labels:
[1] = system: GSK3β and CK1; assay: Phosphorylation of GST-fusion proteins by GSK3β and CK1; assay type: biochemical; conditions: data not shown
[2] = molecular target: T1, GSK3β (Mus musculus, UniProt Q9WV60); assay: Far western binding of GSK3β to GST-fused LRP6 fragments; conditions: for Binding of GSK3β: GST-fusion treated with GSK3β and CK1, GSK3β 1 µg/ml, three independent experiments
T1 construct: The catalytic domains of mouse GSK3β (residues 27–393) and CK1ε (residues 1–319) were expressed and purified; made in house
Source text: We first investigated whether the intracellular region of LRP6 binds to GSK3β in a phosphorylation-dependent manner. To detect binding, we used recombinant GST-fused LRP6 fragments (miniCL, miniCLMT, PPPSPxS, PPPAPxS; Fig. 1A) and GSK3β proteins in a far western binding assay. This assay is appropriate as the LRP6 cytoplasmic region is expected to be natively unstructured and therefore should not suffer from denaturation artifacts. Prior to the binding reaction, the GST-fused LRP6 fragments were phosphorylated by GSK3β and CK1 and transferred to a PVDF membrane. The membrane was incubated with GSK3β, and bound GSK3β was detected with an anti-GSK3β antibody. GSK3β bound to GST-miniCL and GST-miniCLMT, but not GST-PPPSPxS or GST-PPPAPxS (Fig. 4). […] Also, given the measured Ki value of the single PPPSPxS motif, it was expected that the single PPPSPxS motif might exert a limited role in recruiting the GSK3β.
Figure 4 Phosphorylation-dependent binding of the LRP6 intracellular region to GSK3β in the absence and presence of Axin. (A) GST (Lane 1), GST-fused miniCL (Lane 3; GST-miniCL), GST-fused miniCLMT (Lane 5; GST-miniCLMT), and their phosphorylated forms (Lanes 2, 4, 6; indicated by “phos”) were loaded onto an SDS-polyacrylamide gel, and then transferred to PVDF membrane (Left top). […] The phosphorylated protein bands show an upshifted mobility on the gel. The PVDF membrane was incubated with 1 µg/ml of GSK3β to allow GSK3β to bind to the proteins in the membrane. The bound GSK3β was visualized on the transferred proteins by western blotting using an anti-GSK3β antibody (Left bottom), and the GSK3β protein used to obtain the phosphorylated forms of each protein is indicated by GSK3β*. The band intensities of bound GSK3β were measured from the three independent experiments (Right). […] The phosphorylated GST-fused miniCL was transferred to PVDF membrane, and the membrane was incubated with GSK3β (0.1 µg/ml) and GST-fused Axin GBD domain protein (0, 10 µM). Error bars indicate the standard deviation from three independent experiments. […]

[3] = molecular target: T1, GSK3β; assay: In vitro GSK3β activity assay with synthetic peptides (phosphorylation of primed β-catenin N-terminal fragment); assay type: biochemical; conditions: primed β-catenin N-terminal fragment 7 µM, 1 mM ATP, pH 8.0, 30 min at 37°C, 4–7 independent experiments
Source text: We synthesized one dually-phosphorylated (NPPPpSPApTERSH, where pS or pT designates a phosphorylated Ser or Thr residue), two singly-phosphorylated (NPPPSPApTERSH and NPPPp[…]) and one non-phosphorylated ([…]) peptides derived from the first PPPSPxS motif of LRP6 (Fig. 1A). To measure the GSK3β activity toward β-catenin in vitro, we utilized a β-catenin N-terminal fragment (residues 1–133), whose Ser45 was prephosphorylated by CK1, as a substrate (Ha et al., 2004). Each synthetic peptide was added to a reaction mixture containing the purified GSK3β enzyme and the substrate β-catenin N-terminal fragment. The GSK3β activity was determined through measurement of the intensity of the supershifted (retarded) β-catenin bands (Fig. S3), which represent the phosphorylated product species (Fig. S4), on an SDS-polyacrylamide gel (Figs. S3, S4, S5, S6, S7). […] This corresponds well with the results of Zeng et al., who reported that the first Ser residue in the PPPSPxS motif has a more important role in Wnt/β-catenin signaling than the second Ser residue.
The catalytic domains of mouse GSK3β (residues 27–393) and CK1ε (residues 1–319) were expressed and purified as previously described. The N-terminal region (residues 1–133) of β-catenin was expressed in Escherichia coli as a GST-fusion protein with a TEV protease cleavage site and then purified using Glutathione-agarose. Subsequently, the GST tag was cleaved using recombinant TEV protease and was removed by repeated HiTrapQ anion-exchange chromatography. The N-terminal region of β-catenin was then phosphorylated by incubation with the catalytic domain of CK1ε (0.28 mg/ml) at 37°C for 20 min in 50 mM Tris buffer (pH 8.0) containing 10 mM MgCl2, 10 mM 2-mercaptoethanol, and 2 mM phenylmethylsulfonylfluoride. The phosphorylated β-catenin fragment was then further purified using HiTrapQ anion-exchange chromatography to remove the CK1ε enzyme. […]

[4] = system: Xenopus embryos; assay: Microinjection into Xenopus embryos, second body axis formation; assay type: in vivo, Xenopus laevis; conditions: peptide 1 ng co-injected with XWnt8 0.5 pg
Source text: It is well established that Wnt signaling reduces GSK3β activity during development of the Xenopus embryo [24], and that the suppressed activity of GSK3β induces a second body axis in the Xenopus embryo in the response to Wnt. To examine the in vivo effect of the PPPSPxS motif on Wnt/β-catenin signaling, we injected the synthetic peptides into Xenopus embryos, along with a small amount of Xenopus Wnt8 that is insufficient to induce second body axis formation on its own. […] It is likely that a slight reduction in the GSK3β activity due to the activity of the exogenous Wnt on the endogenous LRP6/5 is required for the peptide to cause a sufficient inhibition of GSK3β to trigger Wnt/β-catenin signaling. Moreover, even if the amount of peptide injected is well above physiological concentrations, the effect is specific to the phosphorylated peptide.
Figure 3 The effect of the injected PPPSPxS peptides to the Xenopus embryos. Xenopus Wnt8 protein (XWnt8; 0.5 pg) was co-microinjected with each peptide (1 ng) into the ventrovegetal region of Xenopus embryos. […]
Xenopus laevis was purchased from Xenopus I and Nasco. […] In vitro fertilization was performed as described previously, and the developmental stages of the embryos were determined according to Nieuwkoop and Faber. […]

T1 sequence (Q9WV60 27-393): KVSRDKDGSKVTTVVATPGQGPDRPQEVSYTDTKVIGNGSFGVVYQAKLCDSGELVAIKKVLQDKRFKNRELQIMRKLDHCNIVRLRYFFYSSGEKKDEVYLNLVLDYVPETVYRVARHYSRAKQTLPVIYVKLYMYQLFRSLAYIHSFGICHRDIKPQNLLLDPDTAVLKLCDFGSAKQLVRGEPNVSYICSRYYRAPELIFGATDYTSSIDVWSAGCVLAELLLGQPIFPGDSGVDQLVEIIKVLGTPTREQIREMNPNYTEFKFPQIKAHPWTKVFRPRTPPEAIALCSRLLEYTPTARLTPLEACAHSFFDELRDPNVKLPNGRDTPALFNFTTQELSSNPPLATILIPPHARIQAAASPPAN

Substance | Binding of GSK3β [2] | Induction of second body axis [4] | Inhibitory effect on GSK3β activity toward β-catenin ([3]; at 100 µM) | other results
GST-PPPAPxS: GST-fused LRP6 PPPAPxS, residues 1485–1497 with the substitution at Ser1490 (LNPPPAPATERSH; also: GST-fused, end not given here) | – | – | – | Phosphorylation by GSK3β and CK1 [1]: not phosphorylated
GST-miniCL: GST-fused human LRP6 miniCL, residues 1470–1510 (SSSSSSTKGTYFPAILNPPPSPATERSHYTMEFGYSSNSPS; also: GST fusion (GST left off)) | bound | – | – | –
GST-miniCLMT: GST-fused miniCLMT, residues 1470–1510 with substitution at Ser1490 with Ala (SSSSSSTKGTYFPAILNPPPAPATERSHYTMEFGYSSNSPS; also: GST fusion (GST left off)) | bound | – | – | Effect of S1490A mutation on GSK3β binding [2]: does not affect binding
NPPPSPATERSH [PPPSPxS, non-phosphorylated peptide derived from the first PPPSPxS motif of LRP6] | – | did not | – | Inhibitory effect on GSK3β activity toward β-catenin ([3]; at concentrations up to 100 µM): did not show any inhibitory effect on the GSK3β activity
NPPPSPApTERSH [PPPSPx(p)S, singly-phosphorylated peptide (second Ser/Thr) derived from the first PPPSPxS motif of LRP6] | – | – | only a marginal inhibitory effect | –
NPPPpSPATERSH [PPP(p)SPxS, singly-phosphorylated peptide (first Ser/Thr) derived from the first PPPSPxS motif of LRP6] | – | induced the second body axis with an efficiency comparable to that of the dually-phosphorylated peptide | strong inhibitory effect close to that of the dually-phosphorylated peptide | –
